Results as given in US20250041306A1, “TARGETED PROTEASE DEGRADATION (TED) PLATFORM” (EUBULUS BIOTHERAPEUTICS INC., priority 2021, published 2025).

What was measured:
[1] = tested on: Human Small Cell Lung Cancer NCI-H82; assay: Cell proliferation experiment (Alarm blue), H82; format: cell-based; conditions: H82 cells, 72 h culture; read-out: Anti cell proliferative activity EC50, H82
Outline: (§1)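 Log-phase cells in 96-well plates were exposed 72 h to compound in a 5-fold dilution series, duplicate wells. Viability was measured by Alamar blue fluorescence, and IC50 was derived from a fit using minimum, maximum and slope.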

[2] = tested on: human gastric carcinoma cells N87; assay: Cell proliferation experiment (Alarm blue), N87; format: cell-based; conditions: N87 cells, 72 h culture; read-out: Anti cell proliferative activity EC50, N87
Outline: as §1

[3] = tested on: Human Colon Cancer cells Colo205; assay: Cell proliferation experiment (Alarm blue), Colo205; format: cell-based; conditions: Colo205 cells, 72 h culture; read-out: Anti cell proliferative activity EC50, Colo205
Outline: as §1

[4] = tested on: Human Small Cell Lung Cancer H69; assay: Cell proliferation experiment (Alarm blue), H69; format: cell-based; conditions: H69 cells, 72 h culture; read-out: Anti cell proliferative activity EC50, H69
Outline: as §1

Human Colon Cancer HT-29 = assay: Cell proliferation experiment (Alarm blue), HT-29; format: cell-based; conditions: HT-29 cells, 72 h culture; read-out: Anti cell proliferative activity EC50, HT-29
Outline: as §1

[5] = tested on: human small cell lung cancer NCI-H82 xenograft tumor; assay: In vivo efficacy in nude mouse xenograft tumor model of human small cell lung cancer NCI-H82; parameters: species or system BALB/c nude mice; conditions: nude mice
Procedure: Transplanted tumor cell line: human small cell lung cancer cell NCI-H82, derived from the American Type Culture Collection Center (ATCC, cryopreserved in liquid nitrogen in the laboratory). Under 5% CO2 and 37° C. culture conditions, cells were routinely cultured in RPMI-1640 culture medium containing 10% fetal bovine serum; they were passaged according to cell growth, with a passage ratio of 1:2 to 1:5.
Experimental animal: Female BALB/c nude mice (number: 65; age: 6-8 weeks) were purchased from Charles River and raised in the SPF animal room of Suzhou Shengsu New Pharmaceutical Development Co., Ltd. (3D Biooptima). The temperature is 20 to 25° C., and relative humidity is 40% to 70%, with bright light and dark light for 12 hours each; animals were free to drink and eat. After normal feeding for about 5 days, mice with good physical signs can be selected for this experiment after veterinary inspection. Before grouping, animals were identified at the base of tail using maker pens. After grouping, each animal was identified by ear clipping.
Animal model preparation: NCI-H82 cells at logarithmic growth phase were collected, the cells were resuspended in 50% serum-free RPMI-1640 medium and 50% Matrigel after counting. The concentration of cells was adjusted to […] cells/mL. […] After inoculation, the animal status and tumor growth were regularly observed, the tumor diameter was measured using a electronic vernier caliper, the data were entered into Excel to calculate the tumor volume. […] After the start of experiment, the tumor diameter was measured twice a week, the tumor volume was calculated, and the animal weight was weighed and recorded at the same time. […]
Preparation of UB-181322 sample: An appropriate amount of UB series sample was weighed and put it into a glass bottle; an appropriate volume of DMSO was added. […] The liquid was vortexed to mix evenly, with the proportions of DMSO, 30% Solutol aqueous solution and ultrapure water in the liquid being 5%, 20% and 75%, to obtain preparations with appropriate final concentrations, which are ready for use. […]

[6] = injection 23 mg/kg once every two days (FIG. 3B)

Compound: CC(C)[C@@H](NC(=O)CCOCCOCCOCCOCCOCCOCCOCCOCCN1C(=O)CC(SC[C@H](N)C(=O)N[C@H](Cc2ccccc2)C(=O)N[C@H]2CSSC[C@@H](C(=O)N[C@H](CO)[C@@H](C)O)NC(=O)[C@H]([C@@H](C)O)NC(=O)[C@H](CCCCN)NC(=O)[C@@H](Cc3c[nH]c4ccccc34)NC(=O)[C@H](Cc3ccccc3)NC2=O)C1=O)C(=O)N[C@@H](C)C(=O)Nc1ccc(COC(=O)N(CCC#Cc2ccc3c(c2)CN(C2CCC(=O)NC2=O)C3=O)[C@H]2CC[C@H](NC(=O)N3CCN(c4ccc(Nc5ncc(Cl)c(Nc6ccccc6C(N)=O)n5)cc4)CC3)CC2)cc1 (some centres unmarked) [UB-181322]
- EC50 [1]: 312 nM
- EC50 [2]: 470 nM
- EC50 [3]: 384 nM
- EC50 [4]: > 1000 nM
- EC50 (Human Colon Cancer HT-29): > 1000 nM
- tumor inhibitory effect compared with blank group ([5]; injection 23 mg/kg once every two days (FIG. 3A)): shows the effect of inhibiting tumor growth
- mouse body weight during the administration period [5, 6]: does not change significantly
- toxicity [5, 6]: low
